Data taken from patent publication US20240376084A1, “INHIBITORS OF ALPHA-HEMOLYSIN OF STAPHYLOCOCCUS AUREUS” (Helmholtz-Zentrum Fur Infektionsforschung GmbH, priority 2021, published 2024).

Columns and labels:
[1] = molecular target: S. aureus Alpha hemolysin (Staphylococcus aureus, UniProt P09616); experiment: cell-based; conditions: A549-LDH Assay activity
[2] = molecular target: hemolysin alpha from Staphylococcus aureus (Staphylococcus aureus, UniProt P09616); experiment: cell-based
Chain of hemolysin alpha from Staphylococcus aureus (P09616 27-319 limits assumed): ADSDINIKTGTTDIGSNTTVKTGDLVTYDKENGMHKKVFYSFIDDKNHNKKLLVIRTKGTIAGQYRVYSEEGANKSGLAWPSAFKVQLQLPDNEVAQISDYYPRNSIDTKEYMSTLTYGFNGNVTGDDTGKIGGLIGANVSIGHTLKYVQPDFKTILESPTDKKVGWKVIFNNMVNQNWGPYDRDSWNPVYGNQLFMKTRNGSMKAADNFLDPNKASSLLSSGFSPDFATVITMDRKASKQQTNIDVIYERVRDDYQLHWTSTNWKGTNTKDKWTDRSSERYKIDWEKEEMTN

Chain of S. aureus Alpha hemolysin (P09616 27-319 limits assumed): as above

Cc1cc2[nH]c(=O)c(=O)[nH]c2cc1S(=O)(=O)Nc1ccc(-c2cncnc2)c(Cl)c1 [Compound 66, N-(3-chloro-4-(pyrimidin-5-yl)phenyl)-7-methyl-2,3-dioxo-1,2,3,4-tetrahydroquinoxaline-6-sulfonamide]
EC50 [1]: 100 to 1000 nM | IC50 [2]: 30 to 100 nM

Cc1cc2[nH]c(=O)c(=O)[nH]c2cc1S(=O)(=O)Nc1ccc(-c2ccncc2)c(Cl)c1 [Compound 37, N-(3-chloro-4-(pyridin-4-yl)phenyl)-7-methyl-2,3-dioxo-1,2,3,4-tetrahydroquinoxaline-6-sulfonamide]
EC50 [1]: 30 to 100 nM | IC50 [2]: < 30 nM

Cc1cc2[nH]c(=O)c(=O)[nH]c2cc1S(=O)(=O)Nc1cnc(-c2ccc(C#N)cc2)c(Cl)c1 [Compound 305, N-[5-chloro-6-(4-cyanophenyl)-3-pyridyl]-7-methyl-2,3-dioxo-1,4-dihydroquinoxaline-6-sulfonamide]
EC50 [1]: 30 to 100 nM | EC50 [2]: 100 to 1000 nM

Cc1cc2[nH]c(=O)c(=O)[nH]c2cc1S(=O)(=O)Nc1ccc(-c2ccsc2)c(Cl)c1 [Compound 7, N-(3-chloro-4-(thiophen-3-yl)phenyl)-7-methyl-2,3-dioxo-1,2,3,4-tetrahydroquinoxaline-6-sulfonamide]
EC50 [1]: 100 to 1000 nM | IC50 [2]: < 30 nM

Cc1cn2ccc(-c3ccc(NS(=O)(=O)c4cc5[nH]c(=O)c(=O)[nH]c5cc4C)cc3Cl)cc2n1 [Compound 338, N-[3-chloro-4-(2-methylimidazo[1,2-a]pyridin-7-yl)phenyl]-7-methyl-2,3-dioxo-1,4-dihydroquinoxaline-6-sulfonamide]
EC50 [1]: 30 to 100 nM | EC50 [2]: < 30 nM

Cc1cc2[nH]c(=O)c(=O)[nH]c2cc1S(=O)(=O)Nc1cc(Cl)c(-c2ccc(F)c(Cl)c2)cn1 [Compound 211, N-(4-chloro-5-(3-chloro-4-fluorophenyl)pyridin-2-yl)-7-methyl-2,3-dioxo-1,2,3,4-tetrahydroquinoxaline-6-sulfonamide]
EC50 [1]: 100 to 1000 nM | EC50 [2]: 100 to 1000 nM

COc1ncc(-c2ccc(NS(=O)(=O)c3cc4[nH]c(=O)c(=O)[nH]c4cc3C)cc2Cl)cn1 [Compound 260, N-[3-chloro-4-(2-methoxypyrimidin-5-yl)phenyl]-7-methyl-2,3-dioxo-1,4-dihydroquinoxaline-6-sulfonamide]
EC50 [1]: 100 to 1000 nM | EC50 [2]: 100 to 1000 nM

Cc1cc2[nH]c(=O)c(=O)[nH]c2cc1S(=O)(=O)Nc1ccc(-n2cncn2)c(Cl)c1 [Compound 263, N-[3-chloro-4-(1,2,4-triazol-1-yl)phenyl]-7-methyl-2,3-dioxo-1,4-dihydroquinoxaline-6-sulfonamide]
EC50 [1]: 100 to 1000 nM | EC50 [2]: 1000 to 3500 nM

Cc1nc2ccc(-c3ccc(NS(=O)(=O)c4cc5[nH]c(=O)c(=O)[nH]c5cc4C)cc3Cl)cc2[nH]1 [Compound 361, N-[3-chloro-4-(2-methyl-3H-benzimidazol-5-yl)phenyl]-7-methyl-2,3-dioxo-1,4-dihydroquinoxaline-6-sulfonamide]
EC50 [1]: < 30 nM | EC50 [2]: 30 to 100 nM

Cc1cc2[nH]c(=O)c(=O)[nH]c2cc1S(=O)(=O)Nc1ccc(-c2cc(F)cc(C(N)=O)c2)c(Cl)c1 [Compound 390, 3-[2-chloro-4-[(7-methyl-2,3-dioxo-1,4-dihydroquinoxalin-6-yl)sulfonylamino]phenyl]-5-fluoro-benzamide]
EC50 [1]: < 30 nM | EC50 [2]: < 30 nM

Cc1cc2[nH]c(=O)c(=O)[nH]c2cc1S(=O)(=O)Nc1ccc(I)c(C(F)(F)F)c1 [Compound 325, N-[4-iodo-3-(trifluoromethyl)phenyl]-7-methyl-2,3-dioxo-1,4-dihydroquinoxaline-6-sulfonamide]
EC50 [1]: 1000 to 6000 nM | EC50 [2]: 100 to 1000 nM

Cc1cc2[nH]c(=O)c(=O)[nH]c2cc1S(=O)(=O)Nc1cc(C)c(-c2ccsc2)c(C)c1 [Compound 42, N-(3,5-dimethyl-4-(thiophen-3-yl)phenyl)-7-methyl-2,3-dioxo-1,2,3,4-tetrahydroquinoxaline-6-sulfonamide]
EC50 [1]: 100 to 1000 nM | IC50 [2]: 30 to 100 nM

Cc1cc2[nH]c(=O)c(=O)[nH]c2cc1S(=O)(=O)Nc1ccc(-c2cccc(C#N)c2)c(Cl)c1 [Compound 318, N-[3-chloro-4-(3-cyanophenyl)phenyl]-7-methyl-2,3-dioxo-1,4-dihydroquinoxaline-6-sulfonamide]
EC50 [1]: 100 to 1000 nM | EC50 [2]: 30 to 100 nM

[2H]C([2H])([2H])c1cc2[nH]c(=O)c(=O)[nH]c2cc1S(=O)(=O)Nc1ccc(-c2ccc(F)cc2)c(Cl)c1 [Compound 387, N-[3-chloro-4-(4-fluorophenyl)phenyl]-2,3-dioxo-7-(trideuteriomethyl)-1,4-dihydroquinoxaline-6-sulfonamide]
EC50 [1]: 30 to 100 nM | EC50 [2]: < 30 nM

Cc1cc2[nH]c(=O)c(=O)[nH]c2cc1S(=O)(=O)Nc1ccc(-c2ccc3nccn3c2)c(Cl)c1 [Compound 328, N-(3-chloro-4-imidazo[1,2-a]pyridin-6-yl-phenyl)-7-methyl-2,3-dioxo-1,4-dihydroquinoxaline-6-sulfonamide]
EC50 [1]: 100 to 1000 nM | EC50 [2]: 100 to 1000 nM

Cc1cc2[nH]c(=O)c(=O)[nH]c2cc1S(=O)(=O)Nc1ccc(-c2cc(F)cc(F)c2)c(Cl)c1 [Compound 309, N-[3-chloro-4-(3,5-difluorophenyl)phenyl]-7-methyl-2,3-dioxo-1,4-dihydroquinoxaline-6-sulfonamide]
EC50 [1]: 100 to 1000 nM | EC50 [2]: < 30 nM

CCOc1ccc(-c2ccc(NS(=O)(=O)c3cc4[nH]c(=O)c(=O)[nH]c4cc3C)cc2Cl)cc1 [Compound 319, N-[3-chloro-4-(4-ethoxyphenyl)phenyl]-7-methyl-2,3-dioxo-1,4-dihydroquinoxaline-6-sulfonamide]
EC50 [1]: 100 to 1000 nM | EC50 [2]: 30 to 100 nM

Cc1cc2ccc(-c3ccc(NS(=O)(=O)c4cc5[nH]c(=O)c(=O)[nH]c5cc4C)cc3C(F)(F)F)cc2[nH]1 [Compound 364, 7-methyl-N-[4-(2-methyl-1H-indol-6-yl)-3-(trifluoromethyl)phenyl]-2,3-dioxo-1,4-dihydroquinoxaline-6-sulfonamide]
EC50 [1]: < 30 nM | EC50 [2]: < 30 nM

Cc1cc2[nH]c(=O)c(=O)[nH]c2cc1S(=O)(=O)Nc1ccc2c(c1)B(O)OC2 [Compound 388, N-(1-hydroxy-3H-2,1-benzoxaborol-6-yl)-7-methyl-2,3-dioxo-1,4-dihydroquinoxaline-6-sulfonamide]
EC50 [1]: 1000 to 6000 nM | EC50 [2]: 100 to 1000 nM

Cc1cc2[nH]c(=O)c(=O)[nH]c2cc1S(=O)(=O)Nc1ccc(-c2ccc3c(c2)ncn3C)c(Cl)c1 [Compound 283, N-[3-chloro-4-(1-methylbenzimidazol-5-yl)phenyl]-7-methyl-2,3-dioxo-1,4-dihydroquinoxaline-6-sulfonamide]
EC50 [1]: 100 to 1000 nM | EC50 [2]: 100 to 1000 nM

O=c1[nH]c2cc(F)c(S(=O)(=O)Nc3ccc(-c4ccccc4)c(Cl)c3)cc2[nH]c1=O [Compound 40, N-(2-chloro-[1,1′-biphenyl]-4-yl)-7-fluoro-2,3-dioxo-1,2,3,4-tetrahydroquinoxaline-6-sulfonamide]
EC50 [1]: 100 to 1000 nM | IC50 [2]: 30 to 100 nM

Cc1cc2[nH]c(=O)c(=O)[nH]c2cc1S(=O)(=O)Nc1ccc(-c2ccc(F)c(Cl)c2F)c(Cl)c1 [Compound 2, N-(2,3′-dichloro-2′,4′-difluoro-[1,1′-biphenyl]-4-yl)-7-methyl-2,3-dioxo-1,2,3,4-tetrahydroquinoxaline-6-sulfonamide]
EC50 [1]: 100 to 1000 nM | IC50 [2]: < 30 nM

Cc1cc2[nH]c(=O)c(=O)[nH]c2cc1S(=O)(=O)Nc1ccc(-c2ccc(F)c(F)c2F)c(Cl)c1 [Compound 307, N-[3-chloro-4-(2,3,4-trifluorophenyl)phenyl]-7-methyl-2,3-dioxo-1,4-dihydroquinoxaline-6-sulfonamide]
EC50 [1]: 30 to 100 nM | EC50 [2]: 30 to 100 nM

Cc1cc2[nH]c(=O)c(=O)[nH]c2cc1S(=O)(=O)Nc1ccc(SC(F)(F)F)cc1 [Compound 396, 7-methyl-2,3-dioxo-N-[4-(trifluoromethylsulfanyl)phenyl]-1,4-dihydroquinoxaline-6-sulfonamide]
EC50 [1]: 30 to 100 nM | EC50 [2]: 100 to 1000 nM

Cc1cc2[nH]c(=O)c(=O)[nH]c2cc1S(=O)(=O)Nc1ccc(N2CCOCC2(C)C)c(Cl)c1 [Compound 202, N-(3-chloro-4-(3,3-dimethylmorpholino)phenyl)-7-methyl-2,3-dioxo-1,2,3,4-tetrahydroquinoxaline-6-sulfonamide]
EC50 [1]: 100 to 1000 nM | EC50 [2]: 100 to 1000 nM

Cc1cc(NS(=O)(=O)c2cc3[nH]c(=O)c(=O)[nH]c3cc2Cl)ccc1-c1ccoc1 [Compound 88, 7-chloro-N-(4-(furan-3-yl)-3-methylphenyl)-2,3-dioxo-1,2,3,4-tetrahydroquinoxaline-6-sulfonamide]
EC50 [1]: 100 to 1000 nM | IC50 [2]: 30 to 100 nM

Cc1cc2[nH]c(=O)c(=O)[nH]c2cc1S(=O)(=O)Nc1cc(C)c(-c2ccccc2F)c(C)c1 [Compound 51, N-(2′-fluoro-2,6-dimethyl-[1,1′-biphenyl]-4-yl)-7-methyl-2,3-dioxo-1,2,3,4-tetrahydroquinoxaline-6-sulfonamide]
EC50 [1]: 30 to 100 nM | IC50 [2]: 30 to 100 nM

Cc1cc2[nH]c(=O)c(=O)[nH]c2cc1S(=O)(=O)Nc1ccc(-c2ccc3[nH]c(=O)[nH]c3c2)c(Cl)c1 [Compound 294, N-[3-chloro-4-(2-oxo-1,3-dihydrobenzimidazol-5-yl)phenyl]-7-methyl-2,3-dioxo-1,4-dihydroquinoxaline-6-sulfonamide]
EC50 [1]: 100 to 1000 nM | EC50 [2]: 100 to 1000 nM

Cc1cc2[nH]c(=O)c(=O)[nH]c2cc1S(=O)(=O)Nc1ccc(-c2ccc(C(F)(F)F)cc2)c(Cl)c1 [Compound 317, N-[3-chloro-4-[4-(trifluoromethyl)phenyl]phenyl]-7-methyl-2,3-dioxo-1,4-dihydroquinoxaline-6-sulfonamide]
EC50 [1]: 1000 to 6000 nM | EC50 [2]: 100 to 1000 nM

Cc1cc2[nH]c(=O)c(=O)[nH]c2cc1S(=O)(=O)Nc1ccc(-c2ccc3cc[nH]c3c2)c(Br)c1 [Compound 374, N-[3-bromo-4-(1H-indol-6-yl)phenyl]-7-methyl-2,3-dioxo-1,4-dihydroquinoxaline-6-sulfonamide]
EC50 [1]: < 30 nM | EC50 [2]: < 30 nM

Cc1cc2[nH]c(=O)c(=O)[nH]c2cc1S(=O)(=O)Nc1ccc(C2=CCOCC2)cc1 [Compound 297, N-[4-(3,6-dihydro-2H-pyran-4-yl)phenyl]-7-methyl-2,3-dioxo-1,4-dihydroquinoxaline-6-sulfonamide]
EC50 [1]: 100 to 1000 nM | EC50 [2]: 100 to 1000 nM
